Test results taken from patent publication US20250319115A1, “Compositions and Methods for Modulating Cytokines” (Flagship Pioneering Innovations VII, LLC, priority 2022, published 2025).

Experiments:
[1] = system: IL-4 signaling pathway; experiment: HEK-Blue IL-4 SEAP reporter assay; assay type: cell-based
Method: The effects of putative inhibitors on pro-inflammatory cytokine pathways are assessed using HEK-Blue cells engineered for the detection of bioactive cytokines via activation of JAK/STAT pathways and subsequent expression of the SEAP reporter gene. Cells are treated with their relevant cytokines+/−peptides or control antibodies, and 20 hours after treatment activation of the relevant cytokine receptor is determined via SEAP expression through mixing cell supernatants with a Quanti-Blue colorimetric reagent and measuring optical density at 600 nm.
Reporter lines HEK-Blue TL-4/TL-15/IFN-alpha were cultured in DMEM with GlutaMAX and 10% HI FBS (Gibco). Cells were seeded into black 96-well optical clear flat-bottomed PhenoPlates at densities of 25000 cells/well and 100 uL/well and allowed to rest overnight in a 37 C incubator with 5% CO2. After 24 hours, cells were treated with 10 μL of their relevant cytokines (StemCell Technologies) at the previously determined EC75 for activation (1.164 ng/mL for HEK-Blue IL-4, 2.26 ng/mL for HEK-Blue IL-15, and 0.456 ng/mL for HEK-Blue IFN-alpha), with or without 10 μL of peptides (5 uM final concentration) or control antibodies (1 ug/well). Cells were kept overnight in a 37 C incubator with 5% C02.
20-22 hours after treatment, 20 μL of the cell supernatants were collected and transferred to 96-well white flat opaque-bottom plates (Costar) and each sample was mixed with 180 μL of Quanti-Blue reagent. Colorimetric reactions were allowed to develop in a 37 C incubator with 5% C02 for a certain duration of time (3 hours for HEK-Blue IL-4, 2 hours for HEK-Blue IL-15, and 1 hour for IFN-alpha). Assay plates were then removed from the incubator and the optical density of each well was measured at 600 nm on a GloMax plate reader. Relative activation of the cytokine signaling pathway in question was determined by ratioing the optical density of each sample to the average optical density for the cytokine-only treated cells from the same plate.

[2] = system: CD3/CD28 (TransAct) activated PBMCs; experiment: PBMC cytokine release by Cytometric BeadArray, Inhibition format (peptide with anti-CD3/CD28 T-cell activator); assay type: cell-based, human; parameters: key to Inhibition by Analyte: IL-1b / Inhibition by Analyte: IL-2 / Inhibition by Analyte: TNF / Inhibition by Analyte: IP-10 / Inhibition by Analyte: IL-10: X = a hit with significant activation or inhibition of relevant cytokine release; conditions: peptide applied with anti-CD3/CD28 T-cell activator, 24 hours, supernatant CBA
Method: Peripheral Blood Mononuclear Cells were seeded+/−the T-cell activator […] and +/−peptides for 24-48 hours. Cytokines were measured from the supernatant after incubation by CBA Cytometer.
Thawing PBMCs: PBMCs were thawed by pre-warming TexMACS media (Miltenyi Biotech) in 20 ml aliquots-1-50 ml conical per donor. After the media was warmed to 37° C., cells were removed from liquid nitrogen and brought to the tissue culture hood. For each donor, 1 ml of media from the warmed aliquot was added to the frozen vial and mixed up and down. The media plus thawed cells were then added back to the 50 ml conical. This was repeated until all the cells were thawed and added to the 50 ml tube. Continue with other donors if used. Spin cells for 5 min at 400×g. Supernatant was aspirated and cells resuspended at ˜10*10^6 cells/ml (see vial for cell number).
PBMC Plating: Frozen PBMCs from normal, healthy, human volunteers (StemCell Technologies) were thawed and plated at 250,000 cells/well. After PBMCs were thawed and resuspended at […], cells were then counted (Countess III, Thermo Scientific) and adjusted based on counts to […]. Take the number of PBMCs determined by number of wells for the experiment, for example, 10 wells would need 2.5*10^6 cells total or 0.250 ml. The cells needed for the experiment are then transferred to another conical tube. Warmed TexMACS media is added so that the final concentration is 250,000 cells/190 ul media, for example, 10 wells would need 1.9 ml (190 ul×10 wells) of media total minus 0.250 ml of cells (1.9 ml-0.250 ml) or 1.65 ml of media added to the 0.250 ml of cells. Add 190 ul of cells plus media to the 96 well U-bottom plate. Place in incubator until dilutions are made and ready.
Peptide Dilutions: Ideally, all peptides should be at a starting concentration of at least 10 mM, especially for those in DMSO (ATCC) to reach a final concentration of 1 uM (H2O) or 0.5 uM (DMSO). Dilutions of all test articles should be made at 20× the final concentration, for example, a final concentration of 1 uM peptide would need to be made at 20 uM.
Reagent Dilution: Dilutions are made in TexMACS media, enough for 10 ul/well in triplicate (30 ul of a 20×). Activator—CD3/CD28 (TransAct; Miltenyi Biotech) or cytokine will be at 21× and added after the 45-minute incubation with peptides. Be sure to include relevant controls—Positive: TransAct+Cells, Negative: Vehicle+Cells. Dilutions should also be made in a ultra-low binding plate (Corning).
Assay Procedure: Peptide Treatment: Start assay by thawing the cells and plating in a 96 well, U-bottom tissue culture plate (Corning) as described above. Cell plates are placed in a tissue culture incubator (5% CO2, 37° C.). While cells are in the incubator, start making dilutions (optimally 1 hr or less) as described above. Cell plates are removed from the incubator and 10 ul of the 20× dilutions are added to the relevant wells. After the addition of inhibitors, cell plates are placed in the tissue culture incubator for 45 minutes. The plates are removed from the incubator and 10 ul of 21× TransAct is added to the relevant wells*. Plates are then returned to the incubator and incubated for 24 hours. After 24 hours, plates are spun for 5 minutes at 400×g.
* Activation: This assay can be run in two different formats—Activation and Inhibition. The procedure is the same except no TransAct is needed in the peptide wells for Activation. TransAct is only needed in the control wells. The purpose of this procedure is to determine the possible response from peptides alone.
Cytometric BeadArray (CBA): After the spin, supernatants (˜150 ul) are transferred to a new, ultra-low binding U-bottom plate. Supernatants are then frozen at −20° C. until thawed for CBA (BD) to determine levels of human IL-2, TNFα, IL-1b, IP-10, IL-10, and IFNg. CBA was run according to the manufacturers protocol.

[3] = system: primary human CD8+ T cells; experiment: T cell activation markers in isolated CD8+ T cells +/- CD3/CD28 (ELISA, CD69 flow cytometry); assay type: cell-based
Method: To determine the effect of the Target Protein on T cell activity, the Target Protein, irrelevant proteins, a single amino acid mutant Target Protein and controls were applied to primary human T cells isolated from Peripheral Blood Mononuclear Cells (PBMCs)+/−CD3/CD28. 24 hours later the levels of extra-cellular CD69, IL-2, and TNFalpha (72 hours for IFN-gamma) were evaluated.
Isolation of PBMCfrom Leukopak: The isolation of peripheral blood mononuclear cells (PBMC) from a leukopak sample was conducted using the EasySep™ Direct Human PBMC Isolation Kit (Cat #19654, StemCell Technologies, Vancouver, BC, Canada) following the manufacturer's instructions. A leukopak sample was prepared within a volume range of 125 mL and added to a T-75 cm2 cell culture flask. EDTA was added to the sample to achieve a final concentration of 6 mM. The Isolation Cocktail provided in the kit was added to the sample without vortexing, and the sample was mixed and incubated at room temperature (RT) for 5 minutes. EasySep buffer was added to double the original sample volume, followed by the addition of vortexed RapidSpheres™. The flask was placed into a magnet and incubated at RT for 5 minutes. The cell suspension was carefully pipetted into a new T-75 cm2 flask, and RapidSpheres™ were added to the enriched cells. The flask was placed back into the magnet for a second separation at RT for 5 minutes. Finally, the cell suspension was carefully pipetted into a new tube or centrifuge bottle, and the isolated PBMCs were ready for use.
Isolation of primary human T-cells: Following the isolation of PBMCs, CD8^+ T cells were isolated using the EasySep™ Human CD8^+ T Cell Isolation Kit (Cat #17953, StemCell Technologies, Vancouver, BC, Canada) according to the manufacturer's instructions. The PBMC sample was prepared at a concentration of […] within a volume range of 2 mL and added to a 5 mL polystyrene round-bottom tube. The Isolation Cocktail provided in the kit (50 μL/mL of sample) was added to the sample without vortexing, mixed, and incubated at RT for 5 minutes. RapidSpheres™ were vortexed for 30 seconds to ensure even dispersion and then added to the sample at a concentration of 50 μL/mL of sample. The EasySep buffer was added to top up the sample to a total volume of 2.5 mL, and the sample was mixed by gently pipetting up and down 2-3 times. The tube (without lid) was placed into the magnet and incubated at RT for 3 minutes. After incubation, the magnet was picked up, and in one continuous motion, the magnet and tube were inverted, pouring the enriched cell suspension into a new tube. The isolated CD8^+ T cells were now ready for use.
Peptide treatment: Isolated CD8^+ T cells were plated in a 96-well format plate at a density of 1×10^5 cells per well. […]

[4] = CD8+ T cells, 10 μM, CD3/CD28, 24 hours, ELISA

Row | Substance | inhibitor of the IL-4 signaling pathway (grade in words) ([1]; FIG. 9) | Relative activity (compared to cytokine only controls), Cytokine IL-4 ([1]; peptide 5 uM, cytokine at EC75, SEAP OD 600 nm) | Inhibition by Analyte: IL-1b [2] | Inhibition by Analyte: IL-2 [2] | Inhibition by Analyte: IP-10 [2] | Inhibition by Analyte: TNF [2] | T cell activation markers in CD8+ T cells (TNFα, IL-2, CD69) ([3]; 10 μM vs scrambled protein, with CD3/CD28 antibody cocktail, 24 hours) | T-cell activation marker IL-2 [3, 4] | T-cell activation marker TNFalpha [3, 4] | T-cell activation marker CD69 ([3]; CD8+ T cells, 10 μM, CD3/CD28, 24 hours, flow cytometry)
1 | SEQ ID NO: 4227: novel peptide capable of inhibiting pro-inflammatory cytokine pathways (LAVFVIIRNLSDYLSFFFPFLLELLAVEEHHAYL; listed as Homo sapiens) | moderate | −50% |  |  |  |  |  |  |  | 
2 | SEQ ID NO: 4524: novel, secreted peptide that enhances T cell activation (LDFIRAFLLLLVASVPGKIGSQNLTAQRPPVATSFLQMESSEPTVRK; listed as Homo sapiens) |  |  | X | X | X | X | increases | significantly up-regulates | significantly up-regulates | significantly up-regulates
